Where “and” joins values, the source holds several entries; their conditions need not be identical. Equal values may be shown once.
Legend:
SK-HEP-1 cells [1] = test: Protection of endothelial cells from H2O2-induced cell death (MTS assay); format: cell-based, human; set-up: key to Cell viability (MTS assay): cell viability as % survival; settings: for Cell viability (MTS assay): SK-HEP-1, n = 6 replicates
Description: The effect of increasing concentrations of NACCbl and GSCbl to protect endothelial cells from the effect of H2O2 was assessed. […] Cell viability was determined by MTS® assay. […] FIG. 3 illustrates that NACCbl and GSCbl protect endothelial cells from the effect of H2O2. […] Cell viability was determined by MTS® assay. […] There was no difference between the protection afforded by NACCbl and that by GSCbl. Both required 100 μM to achieve >80% survival.

SK-HEP-1 cells [2] = test: Protection from homocysteine-induced apoptosis, Caspase-3 activity (apoptosis assay); format: cell-based, human; settings: 30 μM two hours, then 30 μM homocysteine two hours
Description: Caspase 3 is activated when cells undergo apoptosis. Caspase-3 assay is a standard for apoptosis assay. Homocysteine is a known inducer of apoptosis. Cells were cultured in 96-well plates for 24 hours and then treated with reagents under test conditions. Cytotoxic agents, H2O2 and etoposide were added to negative control wells. The assay was performed according to the manufacturer's protocol, as follows: Cells were re-suspended in 100 μl of clear media and 50 μl of Caspase-3 substrate solution was immediately added to each test well. […] Cell viability was determined by MTS® assay. […] Cell viability was determined by MTS® assay.

[3] = Decomposition in PBS at 37° C. monitored by UV/Vis spectrophotometry; format: physicochemical
Description: The decomposition of GSCbl, NACCbl, and HcyCbl in PBS at 37° C. was monitored by UV/Vis spectrophotometry.

SK-HEP-1 cells [4] = test: Protection of endothelial cells from homocysteine-induced cell death (MTS assay); format: cell-based, human
Description: The effect of a constant concentration of NACCbl and GSCbl to protect cells against variable concentrations of homocysteine was assessed. […] Cell viability was determined by MTS® assay. Data shown in FIG. 4 are representative of means ±SE of 6 independent samples. FIG. 4 illustrates that NACCbl (▪) and GSCbl (▴) protect endothelial cells from the effect of homocysteine. […] Cell viability was determined by MTS® assay. […] There was a decrease in protection as homocysteine concentration increased, but there was still ˜60% survival at 50 μM homocysteine.
The data was normalized (log 2 and log 10) as shown in FIGS. 16 and 17 and Tables 16 and 17, respectively, below.

methionine synthase = biological target: T1, methionine synthase (Oryctolagus cuniculus, UniProt G1SXW3); settings: rabbit spleen extracts; cited from earlier work
T1 construct: methionine synthase activity in rabbit spleen extracts; from tissue; host or cells: rabbit spleen extract

SK-HEP-1 cells [5] = test: Protection of endothelial cells from H2O2-induced cell death (MTS assay); format: cell-based, human; set-up: key to Cell viability (MTS assay): cell viability as % survival; settings: SK-HEP-1, n = 6 replicates
SK-HEP-1 cells [6] = test: Effect of high concentrations of NACCbl and GSCbl on SK-HEP-1 cells (MTS assay, 24 hours); format: cell-based, human; settings: for Cell viability by MTS assay (FIG. 13): SK-HEP-1, 3 replicates
Hsp32 = Hsp32 gene expression (RT-PCR, densitometry); format: cell-based, human; settings: SK-HEP-1; Sn (IX) protoporphyrin 25 μM; Quercitin 15 μM
SK-HEP-1 cells [7] = settings: 12.5 µM
SK-HEP-1 cells [8] = test: Effect of homocysteine and H2O2 on endothelial cell viability (MTS assay); settings: for Cell viability (MTS assay): SK-HEP-1, 2 hours, n = 6 replicates
in vitro = settings: human, SK-HEP-1 cells

T1 sequence (G1SXW3 1-1218): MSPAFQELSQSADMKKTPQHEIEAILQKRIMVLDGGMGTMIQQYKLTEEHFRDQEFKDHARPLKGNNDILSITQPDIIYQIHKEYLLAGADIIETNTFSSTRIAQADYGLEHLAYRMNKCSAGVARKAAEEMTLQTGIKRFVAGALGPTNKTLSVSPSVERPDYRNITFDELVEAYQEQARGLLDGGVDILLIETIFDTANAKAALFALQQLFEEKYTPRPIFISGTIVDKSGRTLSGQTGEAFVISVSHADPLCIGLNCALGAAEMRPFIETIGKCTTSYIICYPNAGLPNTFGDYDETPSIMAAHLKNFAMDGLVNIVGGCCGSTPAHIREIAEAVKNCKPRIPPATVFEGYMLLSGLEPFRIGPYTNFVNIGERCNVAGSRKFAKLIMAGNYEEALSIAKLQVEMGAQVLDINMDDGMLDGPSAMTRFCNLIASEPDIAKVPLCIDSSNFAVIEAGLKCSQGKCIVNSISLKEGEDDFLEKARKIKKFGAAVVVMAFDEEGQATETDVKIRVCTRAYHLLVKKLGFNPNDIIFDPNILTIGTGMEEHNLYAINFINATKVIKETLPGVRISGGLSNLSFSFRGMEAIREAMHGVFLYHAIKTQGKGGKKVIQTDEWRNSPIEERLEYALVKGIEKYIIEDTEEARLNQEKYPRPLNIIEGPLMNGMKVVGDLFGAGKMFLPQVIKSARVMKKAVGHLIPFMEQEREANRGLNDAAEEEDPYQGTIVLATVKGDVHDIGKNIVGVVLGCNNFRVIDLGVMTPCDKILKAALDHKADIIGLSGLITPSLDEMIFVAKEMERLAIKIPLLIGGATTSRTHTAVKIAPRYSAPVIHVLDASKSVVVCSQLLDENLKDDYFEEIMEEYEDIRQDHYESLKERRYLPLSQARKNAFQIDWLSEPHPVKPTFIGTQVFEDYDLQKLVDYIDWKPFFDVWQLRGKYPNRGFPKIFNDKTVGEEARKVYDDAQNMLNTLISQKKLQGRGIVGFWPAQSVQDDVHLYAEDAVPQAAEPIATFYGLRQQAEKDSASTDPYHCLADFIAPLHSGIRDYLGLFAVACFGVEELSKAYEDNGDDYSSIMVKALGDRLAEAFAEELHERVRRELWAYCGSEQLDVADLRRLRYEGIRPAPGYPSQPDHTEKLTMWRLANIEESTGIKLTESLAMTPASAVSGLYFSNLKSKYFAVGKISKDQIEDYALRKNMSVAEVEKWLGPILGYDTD

## C/C1=C2N=C(/C=C3N=C(/C(C)=C4\[N-]C(C(CC(N)=O)C4(C)CCC(=O)NCC(C)OP(=O)([O-])OC4C(CO)OC(n5cnc6cc(C)c(C)cc65)C4O)C4(C)N=C1C(CCC(N)=O)C4(C)CC(N)=O)C(CCC(N)=O)C\3(C)C)C(CCC(N)=O)C/2(C)CC(N)=O.NC(CCC(=O)NC(C[S-])C(=O)NCC(=O)O)C(=O)O.[Co+3] (centres unmarked) [GSCbl, Glutathionylcobalamin]
SK-HEP-1 cells [1]; 25 μM H2O2 24 hours
  Difference between protection by NACCbl and by GSCbl: no difference
SK-HEP-1 cells [1]; 2 hours, then 25 μM H2O2 24 hours
  Concentration required to achieve >80% survival: 100 µM
SK-HEP-1 cells [1]; GSCbl 30 μM, above 7.5 μM H2O2
  Protection from H2O2: did not provide significant protection
SK-HEP-1 cells [1]; compound 30 μM two hours, then H2O2 200 μM a further two hours
  Cell viability (MTS assay): 1.326 and 7.153 and 3.6 and 1.942 and 5.921 and 0.7579
SK-HEP-1 cells [1]; compound concentration 6.25, 2 hours, then 25 μM H2O2 24 hours
  Cell viability (MTS assay): 48.68 and 56.26 and 45.98 and 43.35 and 42.09 and 41.96
SK-HEP-1 cells [1]; compound concentration 12.5, 2 hours, then 25 μM H2O2 24 hours
  Cell viability (MTS assay): 44.27 and 54.35 and 50.53 and 47.04 and 44.14 and 42.09
SK-HEP-1 cells [1]; compound concentration 25, 2 hours, then 25 μM H2O2 24 hours
  Cell viability (MTS assay): 41.24 and 45.5863 and 42.23 and 45.26 and 41.7 and 44.99
SK-HEP-1 cells [1]; compound concentration 100, 2 hours, then 25 μM H2O2 24 hours
  Cell viability (MTS assay): 64.62 (2×) and 77.87 and 71.61 and 72.6 and 76.5481
SK-HEP-1 cells [1]; compound concentration 200, 2 hours, then 25 μM H2O2 24 hours
  Cell viability (MTS assay): 94.07 and 100.0659 and 102.8327 and 93.87 and 105.5995 and 94.73
SK-HEP-1 cells [2]
  Protection against apoptosis induced by homocysteine: total protection
[3]
  t1/2: No decomposition within 20 hours
SK-HEP-1 cells [4]; 2 hours, then 30 μM homocysteine 24 hours
  Concentration required for >80% survival protection: 50 µM
SK-HEP-1 cells [4]; Hcy 30 μM, NAC 45 μM, GSH 100 μM, NACCbl 12.5 μM, GSCbl 15 μM
  Protection against homocysteine-induced damage compared with free thiols: superior to the free thiols
SK-HEP-1 cells [4]; [Hcy] 30 μM, folate 25 μM present, [GSCbl] = 15 μM, [NACCbl] = 12.5 μM, [CNCbl] = 15 μM, [MeCbl] = 12.5 μM, [HOCbl] = 17.5 μM, [NAC] = 45 μM, [GSH] = 100 μM
  Mean (FIG. 14a, protection of SK-HEP-1 cells from Hcy in the presence of folate): 2.524
SK-HEP-1 cells [4]; compound 30 μM, 50 μM homocysteine
  Survival: ~60%
SK-HEP-1 cells [4]; pre-incubation 30 μM two hours, variable homocysteine two hours
  Protection from homocysteine-induced cell death: protected cells from homocysteine-induced cell death
Methionine synthase
  Promotion of methionine synthase activity: more active than other cobalamins
SK-HEP-1 cells [5]; compound 30 μM two hours, then H2O2 0 μM
  Cell viability (MTS assay): 99.24 and 102.2264 and 105.5898 and 103.6002 and 104.0265 and 104.5476
SK-HEP-1 cells [5]; compound 30 μM two hours, then H2O2 0.781 μM a further two hours
  Cell viability (MTS assay): 96.12 and 98.39 and 97.3946 and 98.0578 and 96.02 and 95.31
SK-HEP-1 cells [5]; compound 30 μM two hours, then H2O2 1.56 μM a further two hours
  Cell viability (MTS assay): 93.56 and 90.81 (2×) and 92.33 and 88.25 and 91.8522
SK-HEP-1 cells [5]; compound 30 μM two hours, then H2O2 3.125 μM a further two hours
  Cell viability (MTS assay): 40.31 and 91.33 and 87.3046 and 82.33 and 79.77 and 77.59
SK-HEP-1 cells [5]; compound 30 μM two hours, then H2O2 6.25 μM a further two hours
  Cell viability (MTS assay): 36.52 and 39.7442 and 34.49 and 34.72 and 34.86 and 36.1
SK-HEP-1 cells [5]; compound 30 μM two hours, then H2O2 12.5 μM a further two hours
  Cell viability (MTS assay): 29.7963 and 32.02 and 36.1 and 32.4 and 29.99 and 33.92
SK-HEP-1 cells [5]; compound 30 μM two hours, then H2O2 25 μM a further two hours
  Cell viability (MTS assay): 23.54 and 26.53 and 22.93 and 24.44 and 22.03 and 20.42
SK-HEP-1 cells [5]; compound 30 μM two hours, then H2O2 50 μM a further two hours
  Cell viability (MTS assay): 15.02 and 20.8432 and 18.95 and 13.12 and 15.6324 and 17.62
SK-HEP-1 cells [5]; compound 30 μM two hours, then H2O2 100 μM a further two hours
  Cell viability (MTS assay): 10.8 and 12.36 and 11.5585 and 9.995 and 6.679 and 8.527
SK-HEP-1 cells [5]; compound concentration 3.125, 2 hours, then 25 μM H2O2 24 hours
  Cell viability (MTS assay): 20.88 and 30.9 and 21.34 and 26.8116
SK-HEP-1 cells [5]; compound concentration 50, 2 hours, then 25 μM H2O2 24 hours
  Cell viability (MTS assay): 42.69 and 45.72 and 48.16 and 46.9 and 46.77 and 51.84
SK-HEP-1 cells [6]; compound conc. 0.61, 24 hours
  Cell viability by MTS assay (FIG. 13): 2.554 and 2.376 and 2.53
SK-HEP-1 cells [6]; compound conc. 1.22, 24 hours
  Cell viability by MTS assay (FIG. 13): 2.347 and 2.433 and 2.503
SK-HEP-1 cells [6]; compound conc. 2.441, 24 hours
  Cell viability by MTS assay (FIG. 13): 2.527 and 2.434 and 2.46
SK-HEP-1 cells [6]; compound conc. 4.882, 24 hours
  Cell viability by MTS assay (FIG. 13): 2.543 and 2.528 and 2.519
SK-HEP-1 cells [6]; compound conc. 9.765, 24 hours
  Cell viability by MTS assay (FIG. 13): 2.532 and 2.476 and 2.42
SK-HEP-1 cells [6]; compound conc. 19.531, 24 hours
  Cell viability by MTS assay (FIG. 13): 2.553 and 2.476 and 2.42
SK-HEP-1 cells [6]; compound conc. 39.062, 24 hours
  Cell viability by MTS assay (FIG. 13): 2.492 and 2.484 and 2.468
SK-HEP-1 cells [6]; compound conc. 78.125, 24 hours
  Cell viability by MTS assay (FIG. 13): 2.444 and 2.406 and 2.402
SK-HEP-1 cells [6]; compound conc. 156.25, 24 hours
  Cell viability by MTS assay (FIG. 13): 2.407 and 2.37 and 2.318
SK-HEP-1 cells [6]; compound conc. 312.5, 24 hours
  Cell viability by MTS assay (FIG. 13): 2.306 and 2.204 and 2.138
SK-HEP-1 cells [6]; compound conc. 625, 24 hours
  Cell viability by MTS assay (FIG. 13): 2.197 and 1.912 and 1.787
SK-HEP-1 cells [6]; compound conc. 1250, 24 hours
  Cell viability by MTS assay (FIG. 13): 1.973 and 1.846 and 1.71
SK-HEP-1 cells [6]; compound conc. 2500, 24 hours
  Cell viability by MTS assay (FIG. 13): 1.775 and 1.81 and 1.896
SK-HEP-1 cells [6]; compound conc. 5000, 24 hours
  Cell viability by MTS assay (FIG. 13): 1.728 and 1.67 and 1.623
SK-HEP-1 cells [6]; compound conc. 10000, 24 hours
  Cell viability by MTS assay (FIG. 13): 1.322 and 1.342 and 1.366
SK-HEP-1 cells [6]; above 0.2 mM concentration
  Cell death compared with NACCbl: caused greater cell death than NACCbl
Hsp32
  Hsp32 gene expression: induce Hsp32

## OO [H2O2, Hydrogen peroxide]
SK-HEP-1 cells [7]
  viability: 11.3% and 10.1% and 11.8% and 11.7% and 12.4%
SK-HEP-1 cells [8]; SK-HEP-1, 2 hours
  Concentration achieving greater than 90% death (<10% survival): 12.5 µM
SK-HEP-1 cells [8]; SK-HEP-1, 2 hours, P<0.001
  Concentration sufficient to kill cultured endothelial cells: ≥ 3 μm
SK-HEP-1 cells [8]; 0.781 μM
  Cell viability (MTS assay): 102.4429 and 98.07 and 98.74 and 102.3076 and 99.02
SK-HEP-1 cells [8]; 1.562 μM
  Cell viability (MTS assay): 96.08 and 96.67 and 98.97 and 85.98
SK-HEP-1 cells [8]; 3.125 μM
  Cell viability (MTS assay): 46.88 and 52.02 and 50.62 and 52.38 and 82.7345 and 84.54
SK-HEP-1 cells [8]; 6.25 μM
  Cell viability (MTS assay): 33.89 and 32.31 and 35.2 and 32.54 and 30.46
SK-HEP-1 cells [8]; 25 μM
  Cell viability (MTS assay): 3.63 (2×) and 3.225 and 3.27 and 3.585
SK-HEP-1 cells [8]; 50 μM
  Cell viability (MTS assay): 0.4284 and 0.06765 and 0.4735
In vitro
  viability at 2 h, 0.781 µM: 99.4%
  viability at 2 h, 1.562 µM: 96.4%
  viability at 2 h, 6.25 µM: 32.6%
  viability at 2 h, 12.5 µM: 12.4%
  viability at 2 h, 25 µM: 3.18%
